In patent US9173836B2, “Pharmaceutical preparations for treatments of diseases and disorders of the breast” (FemmeParma Holding Company, Inc., priority 2003, dated 2015):
Read-outs that look alike come from different tables or passages of the source. Marks after values point to notes of the source that are not given here.

How the values were obtained:
[1] = system: women treated for cyclical mastalgia; settings: in vivo; cited from earlier work
[2] = in vitro; settings: for recovery at 48 h, 100 µM: % Recovery
Protocol: Dermatomed human abdominal skin was obtained from Asterand Inc. (Detroit, Mich.). The donor was a person. […] After thawing at room temperature, the skin was soaked in saline for 30 minutes, and then cut to the appropriate size (approximately 4 cm^2) necessary. Excess moisture and saline were wiped off. The tissue was immediately transferred to the Franz-cell diffusion chamber and clamped between the donor and receiver chambers. The exposed surface area of the Franz-cell diffusion chamber was 1.77 cm^2. The receiver compartment was filled with 8 mL KRB buffer. The reservoir also contained a stirring bar to mix the reservoir contents. […] The temperature was set to maintain the tissue surface at 32° C.
Samples (1.0 mL) were taken from the receiver compartment at 0, 2, 4, 8, 24, and 48 hours for formulation assays and the control assay. After taking samples, an equal volume of receiver KRB buffer was added back to replace the buffer removed. For the control assay, 200 μl of dosing solution (prior to 0 hours) was taken from the container and 200 μl of 0 and 48 hours samples were taken from the donor side of the chamber.
The liquid chromatography phase was carried out using a Keystone Hypersil BDC C12 30×2.0 mm i.d., 3 μm, with guard column and 25 mM ammonium formate buffer (pH 3.5), where Aqueous Reservoir (A) was 90% water, 10% buffer, and Organic Reservoir (B) was 90% acetonitrile, 10% buffer. A flow rate of 300 μL/minute was applied to a gradient program of 0.0 min: 100% A, 0% B; 1.5 min: 0% A, 100% B; 2.0 min: 0% A, 100% B; 2.1 min: 100% A, 0% B; 3.5 min: 100% A, 0% B; for a total run time of 3.5 minutes (Autosampler: 30 μL injection volume; Autosampler Wash: water/acetonitrile/2-propanol:1/1/1; with 0.2% formic acid). Mass spectroscopy was carried out using a PE SCIEX API 3000 (interface: turbo ionspray; mode: multiple reaction monitoring; method: 3.5 minute duration).
The following calculations were performed: Flux=d[(Cr×Vr)/A]/dt

[3] = format: in vitro ADME; settings: 10 μg/ml, pH 7.4
Protocol: The concentration in the apparatus was determined after 0 and 180 minutes of incubation to mimic a skin permeation experiment. […] The experiment was done in triplicate.

[4] = Formulations 1 and 2

For `CC(C)C[C@H]1C(=O)N2CCC[C@H]2[C@]2(O)O[C@](NC(=O)[C@@H]3C=C4c5cccc6[nH]c(Br)c(c56)C[C@H]4N(C)C3)(C(C)C)C(=O)N12` [Bromocriptine], which “Women complaining of more severe side effects” value [1] is on record?
Its value is 10%.

And the “Women reporting mild side effects (nausea, dizziness, headaches, irritability)” value [1]?
The value was 30%.

Which “Dosing solution concentration, Mean ± S.D.” value ([2]; 100 μM) does the source give for `Cn1c(=O)c2c(ncn2C)n(C)c1=O` [Caffeine, caffeine] here?
Its value is 108.7 ± 1.5 µM.

What about the “Cumulative Receiver Concentration” value ([2]; female, human, 0 h, 100 μM) of the same compound?
Its value is 0* μM.

And the “Cumulative Receiver Concentration, Mean ± S.D.” value ([2]; female, human, 0 h, 100 μM)?
The value was 0 ± 0 µM.

What about the “Donor concentration, Mean ± S.D.” value ([2]; female, human, 0 h, 100 μM) of the same compound?
Its value is 102.7 ± 0.6 µM.

And the “Cumulative Receiver Concentration, Mean ± S.D.” value ([2]; female, human, 2 h, 100 μM)?
Its value is 0.009 ± 0.015 µM.

What about the “Cumulative Receiver Concentration, Mean ± S.D.” value ([2]; female, human, 4 h, 100 μM) of the same compound?
Its value is 0.018 ± 0.030 µM.

And the “Cumulative Receiver Concentration, Mean ± S.D.” value ([2]; female, human, 8 h, 100 μM)?
Its value is 0.050 ± 0.075 µM.

What about the “Cumulative Receiver Concentration, Mean ± S.D.” value ([2]; female, human, 24 h, 100 μM) of the same compound?
Its value is 0.196 ± 0.254 µM.

And the “Cumulative Receiver Concentration, Mean ± S.D.” value ([2]; female, human, 48 h, 100 μM)?
Its value is 0.390 ± 0.469 µM.

And the “Donor concentration, Mean ± S.D.” value ([2]; female, human, 48 h, 100 μM)?
The value was 102.4 ± 11.2 µM.

What about the recovery at 48 h, 100 µM ([2]; female, human) of the same compound?
The recovery at 48 h, 100 µM was 104%.

And the recovery at 48 h, 100 µM ([2]; female, human, Mean ± S.D.)?
Its recovery at 48 h, 100 µM is 95.6 ± 8.7%.

Which “Average Measured Concentration ± STD (N = 3)” value ([3]; 0 min) does the source give for `C#C[C@]1(O)CC[C@H]2[C@@H]3CCC4=Cc5oncc5C[C@]4(C)[C@H]3CC[C@@]21C` [Danazol, danazol] here?
Its value is 8.9 ± 0.3 µg/mL.

And the “Average Measured Concentration ± STD (N = 3)” value ([3]; 180 min)?
The value was 8.5 ± 0.3 µg/mL.

Which “Lucifer yellow permeation (membrane integrity)” value [4] does the source give for lucifer yellow here?
The value was “no permeation of Lucifer yellow detectable until after 8 or 24 hours of incubation”.

And the “% Recovery, Mean ± S.D.” value [2]?
The value was 85.3 ± 5.4%.

What about the Papp [2] of the same compound?
Its Papp is 0 ×10⁻⁶ cm/s.

What about the “Papp, Mean ± S.D.” value [2] of the same compound?
Its value is 0 ± 0 ×10^−6 cm/s.

And the “Tissue integrity marker in receiver buffer” value [2]?
The value was “below lower limit of quantification (LLOQ) in all receiver buffer”.
